Laboratory results as given in paper PMC2813745, “A novel inhibitor of the PI3K/Akt pathway based on the structure of inositol 1,3,4,5,6-pentakisphosphate” (British Journal of Cancer, 2010).

Columns and labels:
SKBR3 = assay: Acridine orange/ethidium bromide apoptosis assay, SKBR3; assay type: cell-based, human
Description: Cells seeded in a 24-well plate were treated with the indicated compounds in serum free DMEM or DMEM containing 0.5% FBS (PC3). After 72 h, the number of surviving cells was assessed by manual cell counting or by using the cell counter CDA-500 (Sysmex, Milton Keynes, UK). Alternatively, after 48 h, the number of apoptotic cells was assessed by acridine orange/ethidium bromide assay as described ([Piccolo et al, 2004]; [Maffucci et al, 2005]). SRB test was carried out in SKOV-3 and PC3 seeded in 96-well plate (3800 cells per well or 5800 cells per well, respectively) after 72 h of treatment as described ([Cappella et al, 2001]).
The number of surviving cells was assessed by cell counting. Data are mean±s.e. of n=4 (A) and n=2 (B) independent experiments. ^**=P<0.05. […] The number of apoptotic cells was assessed by acridine orange/ethidium bromide assay. Data are mean±s.e. of three independent experiments. ^**=P<0.05.

[1] = system: Akt phosphorylation at Ser473 and Thr308 in SKOV-3; assay: Akt activation by western blot in SKOV-3; assay type: cell-based, human; details: SKOV-3, 8 h or 24 h, serum free medium
Description: (§1) Akt activation was assessed by monitoring phosphorylation at its residues Ser473 and Thr308. Membranes were then stripped and re-probed with the indicated antibodies.

[2] = system: Akt phosphorylation in PC3; assay: Akt activation by western blot in PC3; assay type: cell-based, human; details: PC3, 24 h, medium containing 0.5% FBS
Description: as §1

[3] = system: Akt phosphorylation at Ser473 and Thr308 in PC3 tumours; assay: Akt phosphorylation in excised tumours (western blot); assay type: in vivo, nude athymic CD-1 nu/nu mice; details: single dose 50 mg kg^−1, tumours excised 24 h after treatment
Description: Animals were killed 24 h after treatment and tumour samples were collected and snap frozen. Frozen specimens of tumour tissue were homogenised with a Polytron homogeniser in a lysis buffer (ratio 1 : 1 w/v) containing 50 mM Tris-HCl (pH 7.4), 5 mM EDTA, 0.1% Nonidet NP-40, 250 mM NaCl, 50 mM NaF and proteases and phosphatase inhibitors. After centrifugation at 13 000 r.p.m. for 10 min at 4°C, 80 μg of protein was separated on SDS–PAGE and transferred to a polyvinylidene difluoride membrane (Millipore, MA, USA). Membranes were probed with the indicated antibodies.
The inositol compounds (12.5–25–50 mg kg^−1 day^−1) and vehicle (water) were given daily by intraperitoneal (i.p.) injections for 14 consecutive days (days 15–28). Tumour size was assessed twice weekly. (A, B) Tumour growth in 2-O-Bn-InsP5-treated mice (A) and InsP5-treated mice (B) compared with control group measured for the duration of the experiment. Results are expressed as mean±s.e. (C) Top: Table showing all P-values for the indicated doses of 2-O-Bn-InsP5 compared to controls at the indicated days of treatment (NS=not significant). […] The percentage of tumour weight inhibition (TWI%), the tumour growth delay (T−C) and the log cell kill (LCK) were calculated as described in the MATERIALS AND METHODS section. […] Phosphorylation of Akt at its residues Ser473 and Thr308 was assessed by using specific antibodies. […]

## O=P(O)(O)OC1C(OCc2ccccc2)C(OP(=O)(O)O)C(OP(=O)(O)O)C(OP(=O)(O)O)C1OP(=O)(O)O (stereo not drawn) [2-O-Bn-InsP5, 2-O-benzyl-myo-inositol 1,3,4,5,6-pentakisphosphate]
SKBR3
  percentage of apoptotic cells: percentage of apoptotic cells was higher in 2-O-Bn-InsP5-treated compared with InsP5-treated
[1]
  Akt phosphorylation at residue Ser473: inhibited Akt phosphorylation at its residue Ser473 more efficiently than InsP5 in SKOV-3, being already active after 8 h of treatment and at a concentration of 20 μM
  Akt phosphorylation at residue Thr308: Inhibition of Akt phosphorylation at residue Thr308 was also detected
[2]
  Akt phosphorylation: able to block Akt phosphorylation
[3]
  Akt phosphorylation at residue Ser473 in tumours: markedly reduced Akt phosphorylation at its residue Ser473 in all 2-O-Bn-InsP5-treated mice
  Akt phosphorylation at residue Thr308 in tumours: clear inhibition of Akt phosphorylation at its residue Thr308 was detected in five out of seven
